Reference: PubChem BioAssay (NCI)
Values joined by “and” are separate entries in the source; they are usually repeats but may differ in a detail not shown here. Identical values can stand only once.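 Assay format: 96-well plates, 48-hour exposure. Abbreviation: GI50, concentration required for 50% inhibition of growth. At the TGI there is no net growth.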

Tests used:
Experiment in all cases: NCI anticancer screen, dose series, 48 h
RPMI-8226 leukemia = tested on: RPMI-8226 leukemia
TK-10 renal = tested on: TK-10 renal
UO-31 renal = tested on: UO-31 renal
MOLT-4 leukemia = tested on: MOLT-4 leukemia
HCT-15 colon = tested on: HCT-15 colon
MCF7 breast = tested on: MCF7 breast
OVCAR-5 ovarian = tested on: OVCAR-5 ovarian
HL-60(TB) leukemia = tested on: HL-60(TB) leukemia
IGROV1 ovarian = tested on: IGROV1 ovarian
T-47D breast = tested on: T-47D breast

Structure (SMILES)	GI50 (RPMI-8226 leukemia) [µM]	TGI (RPMI-8226 leukemia) [µM]	GI50 (TK-10 renal) [µM]	TGI (TK-10 renal)	GI50 (UO-31 renal) [µM]	TGI (UO-31 renal)	GI50 (MOLT-4 leukemia) [µM]	TGI (MOLT-4 leukemia) [µM]	GI50 (HCT-15 colon) [µM]	TGI (HCT-15 colon) [µM]	GI50 (MCF7 breast) [µM]	TGI (MCF7 breast) [µM]	GI50 (OVCAR-5 ovarian) [µM]	TGI (OVCAR-5 ovarian)	GI50 (HL-60(TB) leukemia) [µM]	TGI (HL-60(TB) leukemia) [µM]	GI50 (IGROV1 ovarian)	TGI (IGROV1 ovarian)	GI50 (T-47D breast) [µM]	TGI (T-47D breast)
OCCNC(=S)Nc1ccc(-c2nc(N3C[C@H]4CC[C@@H](C3)O4)c3cccn3n2)cc1	0.0371	1.47	0.0269	0.399 µM	< 0.0152	0.194 µM	0.09	17.1	0.0906	14.4	0.0231	11.4	0.0379	15.3 µM	1.22	> 32.5	0.0165 µM	0.15 µM	< 0.01	0.0389 µM
Cc1c(C)n(CC(O)CNC2CCCCC2C)c2ccccc12 (stereo unspecified)	9.48	28.6	–	–	10.8	23.4 µM	15.3	41.2	12.6	26.5	13.2	28.3	12.9	25.7 µM	19.2	42.7	16 µM	31.9 µM	12.8	29.8 µM
Cc1ccccc1NC(=O)N/C(N)=N/c1nc(C)c(C)s1	0.39	> 100	–	> 100 µM	1.1	> 100 µM	0.467	> 100	0.0647	> 100	0.142	> 100	0.912	> 100 µM	0.235	> 100	0.35 µM	> 100 µM	0.448	> 100 µM
C[C@]12CC/C(=N\O)C[C@@H]1CC[C@@H]1[C@@H]2CC[C@]2(C)/C(=N/O)CC[C@@H]12	15.9	52	32.1	> 100 µM	31.5	78.4 µM	64.4	> 100	43.3	> 100	26.1	98.8	46.1	> 100 µM	23.2	> 100	17.4 µM	62.6 µM	> 100	> 100 µM
COc1ccc2c(c1)[n+]([O-])c(/C(C)=N/NC(N)=S)c(C)[n+]2[O-]	–	> 100	–	> 100 µM	–	> 100 µM	–	> 83.8	–	> 100	–	> 100	–	> 100 µM	–	> 100	–	> 100 µM	–	> 100 µM
CCCCCCCC(=O)SCC/C=C/[C@@H]1CC(=O)NCc2cccc(n2)C2=N[C@@](C)(CS2)C(=O)N[C@@H](C(C)C)C(=O)O1	0.193	> 33.3	0.0262	0.361 µM	0.0647	1.03 µM	0.0702	> 33.3	0.249	> 33.3	0.0827	> 33.3	0.0254	> 33.3 µM	0.126	> 33.3	0.0263 µM	0.525 µM	0.147	1.6 µM
CC(C)(C)n1nc(C2CC2)cc1NC(=O)Nc1ccc(Cl)cc1	–	> 100	–	> 100 µM	–	> 100 µM	–	> 100	–	> 100	–	> 100	–	> 100 µM	–	> 100	–	> 100 µM	–	> 100 µM
Cc1ccc(C(=O)Nc2ccc(CN3CCN(C)CC3)c(C(F)(F)F)c2)cc1C#Cc1cnc(N)c2ccc(C#N)cc12	1.08	19.4	0.625	5.75 µM	0.0224	2.26 µM	0.105	> 12	0.0558	8.77	4.21	29.6	5.85	16.4 µM	0.338	> 50	0.0188 µM	9.55 µM	3.57	> 50 µM
C=C(c1ccc(OC)c(/C=C/C(=O)c2cc(OC)c(OC)c(OC)c2)c1)c1cc(OC)c(OC)c(OC)c1	0.453	3.06	2.59	7.9 µM	1.07	2.34 µM	1.61	27	0.552	2.79	0.44	4.03	2.07	6.14 µM	2.03	13.4	2.07 µM	5.88 µM	1.38	6.12 µM
Nc1nc(=O)c2[nH]cnc2n1O	–	> 100	–	> 100 µM	–	> 100 µM	–	> 100	–	> 100	–	> 100	–	> 100 µM	–	> 100	–	> 100 µM	–	> 100 µM
O=C1c2cccc3c([N+](=O)[O-])ccc(c23)C(=O)N1CCCCl	4.61	> 10	> 10	> 10 µM	> 10	> 10 µM	2.41	5.95	5.01	> 10	3.03	> 10	> 10	> 10 µM	5.18	> 10	1.9 µM	5 µM	2.65	> 10 µM
CC(C)C[C@H](NC(=O)[C@H](Cc1ccccc1)NC(=O)c1cnccn1)B(O)O	0.00085	–	0.00164	< 0.0693 µM and 0.0129 µM	0.00193	0.0228 µM and 0.0179 µM	0.00143	–	0.00237	–	0.0013	–	0.0026	0.0667 µM and 0.0312 µM and < 0.0499 µM	0.00296	–	0.013 µM and 0.00385 µM	0.137 µM and 0.102 µM and 0.15 µM	0.00167	< 0.01 µM and 0.00411 µM
C=C(C)[C@@H]1CC[C@]2(C(=O)N3CCN(C)CC3)CC[C@]3(C)[C@H](CC[C@@H]4[C@@]5(C)C/C(=C/c6ccncc6)[C@H](O)C(C)(C)[C@@H]5CC[C@]43C)[C@@H]12	3.01	17	15.5	89.4 µM	5.37	21 µM	2.36	11	2.65	12.2	3.29	13.8	6.04	26.8 µM	2.29	5.58	6.62 µM	37.7 µM	3.02	22.4 µM
C=CC1CC12C(=O)C1OC2(C)C2C(=O)c3c(O)cccc3C(=O)C12 (stereo unspecified)	–	–	39.7	> 100 µM	> 100	> 100 µM	23.6	> 100	19.1	44.6	23.2	74.5	> 100	> 100 µM	18.7	46.9	–	–	31.2	> 100 µM
S=P(C1CCCCC1)(C1CCCCC1)C(c1cccnc1)N1CCCC1 (stereo unspecified)	–	38.3	–	34.3 µM	–	–	–	42.7	–	> 100	–	> 100	–	> 100 µM	–	37	–	33.8 µM	–	> 100 µM
CC1=CC[C@@H]2[C@@H](CC[C@@]2(C)O)C(C)(C)[C@H]1CC[C@@H]1[C@@]2(C)CC[C@@H](O)C(C)(C)O[C@@H]2CC[C@]1(C)O	–	52.3	–	> 100 µM	–	34.3 µM	–	47.5	–	38	–	> 100	–	> 100 µM	–	40.5	–	–	–	> 100 µM
Nc1nc2ccccc2c2[nH]c3ccccc3c12	–	–	1.57	4.18 µM	1.31	2.61 µM	–	–	0.671	2.43	1.19	2.55	1.84	4.11 µM	1.98	5.73	0.806 µM	2.42 µM	1.21	2.91 µM
COc1cc(/C=C/C(=O)c2ccc(F)cc2)ccc1OCCCCOc1cc2c(cc1OC)C(=O)N1CCCC1C=N2 (stereo unspecified)	0.218	1.31	1.7	23.2 µM	0.891	–	0.317	2.18	1.07	> 28.2	0.318	6.12	3.85	> 26.6 µM	0.477	1.21	1.83 µM	3.59 µM	1.42	> 33.2 µM
CC/C=C\C[C@H](O)C/C=C1/C(=O)C=C[C@@H]1C/C=C\CCCC(=O)OCCS(=O)(=O)c1ccccc1	2.7	8.25	5.58	17.3 µM	2.37	6.31 µM	2.83	13.4	2.84	11.4	2.39	18.6	12.4	29.5 µM	2.84	12.3	6.26 µM	23.3 µM	3.76	18.7 µM
COc1ccc(-c2cc(=O)c3c(OC)c(O)c(OC)cc3o2)cc1	–	99.3	–	94 µM	–	> 100 µM	–	> 100	–	> 100	–	> 100	–	> 100 µM	–	> 100	–	> 100 µM	–	> 100 µM
CS(=O)(=O)c1nccc(-c2c(-c3cccc(OCc4ccccc4)c3)nc3sccn23)n1	9.24	> 32.3	53.2	> 100 µM	21.2	78 µM	1.64	> 100	12	> 100	7.31	> 100	> 100	> 100 µM	3.97	27	10.3 µM	> 100 µM	11.7	> 100 µM
COc1ccc2c(c1)O/C(=C\c1ccc([N+](=O)[O-])o1)C2=O	0.367	2.33	2.13	9.49 µM	1.41	4.3 µM	2.13	8.26	0.271	1.26	0.345	3.12	2.27	5.78 µM	1.8	5.69	1.35 µM	7.3 µM	1.4	8.83 µM
CCCCCCCCCCCCCCCCSS(C)(=O)=O	–	14.1	–	52.9 µM	–	35.7 µM	–	6.77	–	39.2	–	> 100	–	> 100 µM	–	11.6	–	> 61.3 µM	–	24.1 µM
CCC1CCC2C3CC=C4CC(OC(C)=O)C(N)CC4(C)C3CCC12C (stereo unspecified)	–	8.3	–	6.1 µM	–	9.68 µM	–	8.01	–	12.5	–	14	–	14.1 µM	–	4.48	–	18.2 µM	–	12.6 µM
O=S1(=O)OCc2ccccc21	–	> 100	–	> 100 µM	–	> 100 µM	–	78.9	–	> 100	–	> 100	–	> 100 µM	–	> 100	–	> 100 µM	–	> 100 µM
O=c1[nH]ccc2nc(N3CCC(O)CC3)nc(Nc3ccc(N4CCOCC4)cc3)c12	> 100	> 100	> 26.3	> 100 µM	0.374	> 100 µM	> 83.8	> 100	1.24	> 100	4.45	> 100	3.38	> 100 µM	> 100	> 100	0.584 µM	> 100 µM	> 100	> 100 µM
COc1ccc(-c2cnc(SCC(=O)c3c(C)n(C)n(-c4ccccc4)c3=O)n2-c2ccc(OC)cc2)cc1	6.87	> 50	> 50	> 50 µM	> 50	> 50 µM	12.6	> 50	> 50	> 50	35.3	> 50	> 50	> 50 µM	36.8	> 50	> 50 µM	> 50 µM	> 50	> 50 µM
COc1ccccc1CN=C1NC(=O)/C(=C/c2ccc3ncccc3c2)S1	7.17	> 25	7.97	> 25 µM	7.37	> 21.7 µM	8.17	> 19	4.55	> 25	5.4	> 25	16.3	> 25 µM	10.3	> 25	6.56 µM	> 19.4 µM	8.13	24.3 µM
O=C(CC(O)c1cccnc1)CC(O)c1cccnc1 (stereo unspecified)	–	> 100	–	> 100 µM	–	32.5 µM	–	> 52.1	–	29.6	–	20	–	54 µM	–	> 100	–	29.9 µM	–	> 73.5 µM
